Reference: US20090076067A1, “PHARMACEUTICAL COMPOSITION COMPRISING AZARHODACYANINE COMPOUND AS ACTIVE INGREDIENT” (priority 2005, published 2009)

System: Rat-derived L6 cells (rat skeletal myoblast cell)
Assay: Rat L6 cell proliferation inhibition test
Type: cell-based
Settings: Alamar Blue

CCN1C(=O)/C(=c2/s/c(=C3/C=CC=CN3C)c(=O)n2CC)S/C1=N\c1sc2cc(OC)ccc2[n+]1C [Compound B-28]
EC50 cytotoxicity L6 (Table 1, 72 hours): 5.01 µg/mL
EC50 cytotoxicity L6 (Table 2, 72 hours): 5.01 µg/mL
EC50 cytotoxicity L6 (Table 3, 72 hours): 5.01 µg/mL
EC50 cytotoxicity L6 (Table 4, 72 hours): 5.01 µg/mL

CCN1C(=O)/C(=c2/s/c(=C3/SCCN3C)c(=O)n2CC)S/C1=N\c1sc2cc(OC)ccc2[n+]1C [Compound B-29]
EC50 cytotoxicity L6 (Table 1, 72 hours): 1.98 µg/mL
EC50 cytotoxicity L6 (Table 2, 72 hours): 1.98 µg/mL
EC50 cytotoxicity L6 (Table 3, 72 hours): 1.98 µg/mL
EC50 cytotoxicity L6 (Table 4, 72 hours): 1.98 µg/mL

CCN1C(=O)/C(=c2/s/c(=C3/C=CC=CN3C)c(=O)n2CC)S/C1=N\c1sc2ccccc2[n+]1C [Compound B-30]
EC50 cytotoxicity L6 (Table 1, 72 hours): 7.46 µg/mL
EC50 cytotoxicity L6 (Table 2, 72 hours): 7.46 µg/mL
EC50 cytotoxicity L6 (Table 3, 72 hours): 7.46 µg/mL
EC50 cytotoxicity L6 (Table 4, 72 hours): 7.46 µg/mL

CCN1C(=O)/C(=c2/s/c(=C3/SCCN3C)c(=O)n2CC)S/C1=N\c1sc2cc(F)ccc2[n+]1C [Compound B-33]
EC50 cytotoxicity L6 (Table 1, 72 hours): 9.83 µg/mL
EC50 cytotoxicity L6 (Table 2, 72 hours): 9.83 µg/mL
EC50 cytotoxicity L6 (Table 3, 72 hours): 9.83 µg/mL
EC50 cytotoxicity L6 (Table 4, 72 hours): 9.83 µg/mL

CN1/C(=c2\s/c(=C\c3cccc[n+]3CCC(=O)O)n(CC3CO3)c2=O)Sc2ccccc21 (stereo not shown) [Compound S-3, reference compound]
EC50 cytotoxicity L6 (Table 2, 72 hours): >90 µg/mL
EC50 cytotoxicity L6 (Table 3, 72 hours): >90 µg/mL
EC50 cytotoxicity L6 (Table 4, 72 hours): >90 µg/mL
